From ChEMBL document CHEMBL4402532, “Heme Oxygenase-2 (HO-2) as a therapeutic target: Activators and inhibitors” (Eur J Med Chem, 2019)

Legend:
Format in all cases: microsomes
Heme oxygenase 1 [1] = molecular target: T1, Heme oxygenase 1 (Rattus norvegicus, UniProt P06762); assay: Inhibition of Sprague-Dawley rat spleen microsome HO-1 preincubated for 10 mins followed by beta-NADPH addition and measured after 15 mins by gas chromatography
T1 sequence (P06762 whole entry): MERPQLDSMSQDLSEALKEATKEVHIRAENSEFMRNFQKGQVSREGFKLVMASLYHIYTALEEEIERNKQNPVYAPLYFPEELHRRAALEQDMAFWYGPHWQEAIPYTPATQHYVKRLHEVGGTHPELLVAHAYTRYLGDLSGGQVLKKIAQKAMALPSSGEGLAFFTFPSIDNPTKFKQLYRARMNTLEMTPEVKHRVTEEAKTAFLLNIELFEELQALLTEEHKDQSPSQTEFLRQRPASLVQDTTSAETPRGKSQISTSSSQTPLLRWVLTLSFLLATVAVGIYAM

Heme oxygenase 2 [2] = molecular target: T2, Heme oxygenase 2 (Rattus norvegicus, UniProt P23711); assay: Inhibition of Sprague-Dawley rat brain microsome HO-2 preincubated for 10 mins followed by beta-NADPH addition and measured after 15 mins by gas chromatography
T2 sequence (P23711 whole entry): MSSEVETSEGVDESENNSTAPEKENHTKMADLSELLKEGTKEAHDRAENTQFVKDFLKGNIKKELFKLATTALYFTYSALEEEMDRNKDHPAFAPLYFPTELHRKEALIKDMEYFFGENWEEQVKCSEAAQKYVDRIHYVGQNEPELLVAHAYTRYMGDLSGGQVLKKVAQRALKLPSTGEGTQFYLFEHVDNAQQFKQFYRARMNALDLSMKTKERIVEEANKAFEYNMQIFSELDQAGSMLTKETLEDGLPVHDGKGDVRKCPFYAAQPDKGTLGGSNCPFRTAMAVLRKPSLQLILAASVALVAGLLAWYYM

Heme oxygenase 2 [3] = molecular target: T2, Heme oxygenase 2; assay: Inhibition of rat brain microsome HO-2 preincubated for 10 mins followed by beta-NADPH addition and measured after 15 mins by gas chromatography
Heme oxygenase 1 [4] = molecular target: T1, Heme oxygenase 1; assay: Inhibition of rat spleen microsome HO-1 preincubated for 10 mins followed by beta-NADPH addition and measured after 15 mins by gas chromatography
[5] = molecular target: T3, Heme oxygenase 1 (Rattus norvegicus) (UniProt P06762); assay: Activation of rat spleen microsome HO-1 preincubated for 10 mins followed by NADPH addition and measured after 15 mins by gas chromatography relative to control; set-up: concentration or dose not given beside the values
T3 sequence (whole entry): T1 sequence (P06762 whole entry)

[6] = molecular target: T4, Heme oxygenase 2 (Rattus norvegicus) (UniProt P23711); assay: Activation of rat brain microsome HO-2 […] preincubated for 10 mins followed by NADPH addition and measured after 15 mins by gas chromatography relative to control; set-up: concentration or dose not given beside the values
T4 sequence (whole entry): T2 sequence (P23711 whole entry)

Structure (SMILES) | IC50 (Heme oxygenase 1 [1]) | IC50 (Heme oxygenase 2 [2]) | other results
COc1ccc(CC(O)CCn2ccnc2)cc1 (stereo unspecified) | 0.7 µM | 6 µM | –
CC(C)N1CCN(c2ccc(OCC3COC(Cn4cncn4)(c4ccc(Cl)cc4Cl)O3)cc2)CC1 (stereo unspecified) [TERCONAZOLE] | – | – | IC50 (Heme oxygenase 2 [3]): 5 µM; IC50 (Heme oxygenase 1 [4]): 0.41 µM
c1ccc(CCCCn2ccnc2)cc1 | 0.25 µM | 6.7 µM | –
O=C1CCCc2ccccc21 | – | – | Activity [5]: 98%; Activity [6]: 96%
Cc1oc2c(c1C(=O)N1CCCC1)C(=O)c1ccccc1C2=O | – | – | Activity [5]: 91%; Activity [6]: 602%
O=C(Cn1cncn1)c1ccc(Cc2ccccc2)cc1 | 2.7 µM | 7 µM | –
O=C1C(O)=C(Cl)C(=O)c2ccccc21 | – | – | Activity [5]: 106%; Activity [6]: 108%
CC(C)(C)N1COc2ccc3c4c(oc3c2C1)C(=O)c1ccccc1C4=O | – | – | Activity [5]: 85%; Activity [6]: 345%
Fc1ccc(CO[C@@H](CCc2ccc(Cl)cc2)Cn2ccnc2)cc1 | 0.9 µM | 1 µM | –
O[C@H](Cn1ccnc1)c1ccc(CCc2ccccc2)cc1 | 0.225 µM | 8 µM | –
O=C(Cn1ccnc1)c1ccc(C2CCCCC2)cc1 | 5 µM | 6 µM | –
O=C1C=CC(=O)c2ccccc21 | – | – | Activity [5]: 71%; Activity [6]: 503%
O=C(Cn1ccnc1)c1ccc(Cl)c(Cl)c1Cl | 2.1 µM | 6 µM | –
c1ccc(Cn2c(CC3CC4CCC3C4)nc3ccccc32)cc1 (stereo unspecified) | > 100 µM | 6.3 µM | –
Brc1ccc(Cn2c(CC3CCCC3)nc3ccccc32)cc1 | 75.6 µM | 8.4 µM | –
O=C(Cn1ccnc1)c1cccc2ccccc12 | 2.24 µM | 10 µM | –
Cc1ccc(Cn2c(CC3CCCC3)nc3ccccc32)cc1 | 18.1 µM | 8.6 µM | –
OC(Cn1ccnc1)CC12CC3CC(CC(C3)C1)C2 (stereo unspecified) | 2 µM | 6.5 µM | –
Cc1ccc(S(=O)(=O)C[C@@H]2CO[C@@](CCc3ccc(Cl)cc3)(Cn3ccnc3)O2)cc1 | 6 µM | 3 µM | –
c1ccc(CSCCn2ccnc2)cc1 | – | 10 µM | –
O=C(Cn1ccnc1)c1ccc(Cl)c(Cl)c1 | 1.24 µM | – | –
c1ccc(CCCCCCn2ccnc2)cc1 | 2.8 µM | 20 µM | –
O=C(Cc1ccc(Br)cc1)Cn1ccnn1 | 0.39 µM | 3 µM | –
COc1ccc(NC2=C(N3CCCCC3)C(=O)c3ccccc3C2=O)cc1 | – | – | Activity [5]: 82%; Activity [6]: 249%
